Results on seven molecules are retold here after PMC7526454 (JCI Insight, 2020).

The test system of one data set is pancreatic islets. Description: Pancreatic islet perifusion, insulin secretion. The settings on record: ex vivo perifusion, male mice, iAUC; GLP-1 300 pM, GIP 3 nM (after 1 μM Ex9), tirzepatide 1 nM.
For data set [1] the following is noted: native ligand, during meal induced incretin secretion; cited from earlier work.
Data set [2] concerns the target T1, GLP-1R (Homo sapiens, UniProt P43220). The data set is described as follows: On-cell Western internalization assay, HA-GLP-1R-EGFP HEK293. In kind it is cell-based. Also on record: expressed in transfected cells. To be noted: HEK293, surface GLP-1R 30 minutes after ligand, normalized to 1 μM GLP-1(7-36); mean (SEM, n); read-out: GLP-1R internalization, maximum effect relative to GLP-1.
Procedure: For receptor internalization studies, DNA encoding human GIPR and GLP-1R with N-terminal 3X-HA epitope tags and C-terminal EGFP tags was constructed in pcDNA3.1.
HEK293 cells stably expressing HA-GIPR-EFGP or HA–GLP-1R–EFGP clones were plated into poly-D-lysine–coated 96-well microplates and cultured until cells reached 80%–90% confluency. On the day of assay, growth media was removed, and cells were rinsed once with prewarmed starvation media (growth media without serum or antibiotics, supplemented with 0.1% casein) and equilibrated with fresh media for 1 hour at 37°C, 5% CO2. […] Fixative was removed, and cells were washed in PBS and blocked with Odyssey blocking buffer (Licor) for 1 hour.

Data set [3] addresses T1, GLP-1R. The data set is described as follows: ARRB2 recruitment, CHO-K1 PathHunter enzyme fragment complementation. It is filed as cell-based.
Procedure: ARRB2 recruitment to human GIPR and GLP-1R was quantified in CHO-K1 PathHunter cells expressing C-terminally fused ProLink1 receptors and Enzyme Acceptor fused ARRB2 from DiscoverX (Eurofins). […] Cell vials were thawed and added at equal volume in respective assay medium as previously stated. Recruitment of ARRB2 to activated receptors occurred at 37°C for 90 minutes, followed by cell lysis by the addition of 10 μL detection mixture containing β-galactosidase 93-0001 substrate to quantitate functional enzyme fragment complementation. Chemiluminescent signal was developed for 60 minutes at room temperature and quantified using an EnVision plate reader. Raw data were normalized to percent activation compared with control wells, and the curves were fit to the 4-parameter logistic model in Genedata Screener. As an alternative approach to measure β-arrestin recruitment, bioluminescent resonance energy transfer (BRET) was performed. […] Freestyle HEK cells (R79007, Thermo Fisher Scientific) were transfected in antibiotic-free media using Fugene-6 complexed in optiMEM (Thermo Fisher Scientific). […] Emission was measured at 460 nm (donor) and 610 nm (acceptor) wavelengths. The BRET ratio was calculated as acceptor emission divided by donor emission. […] Agonist-stimulated protein-to-protein interaction of 2 fusion molecules were detected with Nano-Glo substrate and standard luminescent detection. […]
The target of another data set is T2, SNAP-tagged GLP-1R (Homo sapiens, UniProt P43220).
T2 construct: expressed in transfected cells
The data set is described as follows: Real-time internalization assay, SNAP-tagged receptor. To be noted: HEK293; read-out: internalization of SNAP-tagged GLP-1R, Emax relative to GLP-1. In kind it is cell-based.

In data set [4] the target is mouse GLP-1R–LgBiT (mouse) (UniProt O35659).
The conditions of data set [5]: rodents, acute glucose challenge; read-out: in vivo EC50; cited from earlier work. An excerpt:
(§1) We recognize that calculating pRO values has caveats (see Methods) and propose its use mainly for generating hypotheses and as a tool to probe mechanistic biology. For perspective, though, when examining the pRO values of other ligands, we observe that GLP-1R occupancy is also relatively low (about 10%). Based on established data, this makes sense in terms of the in vivo sensitivity of the GLP-1R system. […] In humans, active GLP-1 and GI ...

In data set [6] the test system is GLP-1R. The settings on record: read-out: in vitro EC50; cited from earlier work.
From the text: as §1

Data set [7] has as its target T3, human GIP receptor (GIPR) (human, UniProt P48546-1 22-466).
T3 construct: human GIPR (NP_000155), untagged, expressed in HEK293 cells at low, medium or high density; also called glucose-dependent insulinotropic polypeptide receptor; source: HEK293 clonal cell lines, stably transfected (pcDNA3.1)
T3 sequence (looked up): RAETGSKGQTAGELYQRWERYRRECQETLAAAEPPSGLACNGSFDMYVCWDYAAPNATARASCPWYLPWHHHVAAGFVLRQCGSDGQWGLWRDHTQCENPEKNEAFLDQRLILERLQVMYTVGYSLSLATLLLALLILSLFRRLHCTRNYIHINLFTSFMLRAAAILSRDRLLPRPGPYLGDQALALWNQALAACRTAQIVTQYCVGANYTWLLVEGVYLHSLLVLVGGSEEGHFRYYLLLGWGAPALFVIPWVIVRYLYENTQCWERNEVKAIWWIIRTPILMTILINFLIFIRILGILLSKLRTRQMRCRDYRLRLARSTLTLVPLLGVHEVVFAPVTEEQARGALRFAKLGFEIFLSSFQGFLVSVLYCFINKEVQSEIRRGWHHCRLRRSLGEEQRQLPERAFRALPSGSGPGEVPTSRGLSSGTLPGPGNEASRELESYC
The data set is described as follows: radioligand binding. To be noted: one partner purified.

Data set [8] addresses T3, human GIP receptor (GIPR). Description: radioligand binding; competition with [125I]GIP(1-42)OH (GIPR) or [125I]GLP-1(7-36)NH2 (GLP-1R), ~0.12–0.20 nM, on membranes of HEK293 cells expressing the human receptor held on WGA-PVT SPA beads; 1.0 mM MgCl2, 2.5 mM CaCl2, 0.003% w/v Tween-20, 0.1% w/v bacitracin, 25 mM HEPES pH 7.4; 18 hours at room temperature; Ki by the Cheng-Prussoff correction. To be noted: one partner purified.

Data set [9] has as its target T3, human GIP receptor (GIPR). Description: cell-based or functional assay.

Values joined by “and” are separate entries in the source; they are usually repeats but may differ in a detail not shown here. Equal values may be shown once. Starred links: 1 amine or outer side, 2 acyl side, 3 side chain; linkers in the order of their positions; H or OH if unused. Non-standard residues stand in square brackets, D forms with d. Groups on a side chain read outwards from the residue. No end group written: not given here. *: point of attachment. C20 diacid = O=C(O)CCCCCCCCCCCCCCCCCCC(=O)*; γGlu = O=C(O)[C@H](CCC(=O)[*:2])N[*:1]; AEEA = NCCOCCOCC(=O)O; Aib = CC(C)(N)C(=O)O Bounds are passed on as bounds.

T1 sequence (P43220 24-463): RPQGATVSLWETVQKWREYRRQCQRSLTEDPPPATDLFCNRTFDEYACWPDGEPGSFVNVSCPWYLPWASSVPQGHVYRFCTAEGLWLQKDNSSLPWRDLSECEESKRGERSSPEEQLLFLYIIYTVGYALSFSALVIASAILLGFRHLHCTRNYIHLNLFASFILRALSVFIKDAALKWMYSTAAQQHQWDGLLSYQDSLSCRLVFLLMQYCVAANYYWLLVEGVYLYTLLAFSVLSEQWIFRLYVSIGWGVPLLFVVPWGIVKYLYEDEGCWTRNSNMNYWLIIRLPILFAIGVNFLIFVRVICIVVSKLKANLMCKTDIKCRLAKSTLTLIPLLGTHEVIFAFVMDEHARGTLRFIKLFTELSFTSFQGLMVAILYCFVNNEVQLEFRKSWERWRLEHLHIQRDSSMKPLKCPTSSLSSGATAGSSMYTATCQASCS
Sequence of mouse GLP-1R–LgBiT (mouse) (O35659 22-463): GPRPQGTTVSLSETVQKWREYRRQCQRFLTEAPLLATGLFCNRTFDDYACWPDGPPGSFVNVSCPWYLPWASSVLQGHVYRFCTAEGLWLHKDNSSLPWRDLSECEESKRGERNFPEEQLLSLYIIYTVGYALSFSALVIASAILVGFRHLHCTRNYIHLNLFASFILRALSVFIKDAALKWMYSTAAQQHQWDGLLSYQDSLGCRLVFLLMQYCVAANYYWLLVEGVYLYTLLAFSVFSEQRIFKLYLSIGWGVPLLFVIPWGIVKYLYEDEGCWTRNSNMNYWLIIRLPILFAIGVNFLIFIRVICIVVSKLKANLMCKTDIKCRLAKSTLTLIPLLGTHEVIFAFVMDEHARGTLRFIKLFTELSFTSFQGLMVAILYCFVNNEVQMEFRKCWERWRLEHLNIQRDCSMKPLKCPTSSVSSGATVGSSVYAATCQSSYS
T2 sequence (P43220 24-463): as the sequence (P43220 24-463) above

As to `CC[C@H](C)[C@H](NC(=O)[C@H](CO)NC(=O)[C@H](Cc1ccc(O)cc1)NC(=O)[C@H](CC(=O)O)NC(=O)[C@H](CO)NC(=O)[C@@H](NC(=O)[C@H](Cc1ccccc1)NC(=O)[C@@H](NC(=O)CNC(=O)[C@H](CCC(=O)O)NC(=O)[C@H](C)NC(=O)[C@@H](N)Cc1ccc(O)cc1)[C@@H](C)O)[C@@H](C)CC)C(=O)N[C@@H](C)C(=O)N[C@@H](CCSC)C(=O)N[C@@H](CC(=O)O)C(=O)N[C@@H](CCCCN)C(=O)N[C@H](C(=O)N[C@@H](Cc1c[nH]cn1)C(=O)N[C@@H](CCC(N)=O)C(=O)N[C@@H](CCC(N)=O)C(=O)N[C@@H](CC(=O)O)C(=O)N[C@@H](Cc1ccccc1)C(=O)N[C@H](C(=O)N[C@@H](CC(N)=O)C(=O)N[C@@H](Cc1c[nH]c2ccccc12)C(=O)N[C@@H](CC(C)C)C(=O)N[C@@H](CC(C)C)C(=O)N[C@@H](C)C(=O)N[C@@H](CCC(N)=O)C(=O)N[C@@H](CCCCN)C(=O)NCC(=O)N[C@@H](CCCCN)C(=O)N[C@@H](CCCCN)C(=O)N[C@@H](CC(N)=O)C(=O)N[C@@H](CC(=O)O)C(=O)N[C@@H](Cc1c[nH]c2ccccc12)C(=O)N[C@@H](CCCCN)C(=O)N[C@@H](Cc1c[nH]cn1)C(=O)N[C@@H](CC(N)=O)C(=O)N[C@H](C(=O)N[C@H](C(=O)N[C@@H](CCC(N)=O)C(N)=O)[C@@H](C)O)[C@@H](C)CC)C(C)C)[C@@H](C)CC` [GIP(1-42), GIP(1-42)NH2], the “insulin secretion of Arrb1βcell–/– islets compared with control islets” value in the data set on pancreatic islets is given as “not different”.
As to `CC[C@H](C)[C@H](NC(=O)[C@H](Cc1ccccc1)NC(=O)[C@H](CCC(=O)O)NC(=O)[C@H](CCCCN)NC(=O)[C@H](C)NC(=O)[C@H](C)NC(=O)[C@H](CCC(N)=O)NC(=O)CNC(=O)[C@H](CCC(=O)O)NC(=O)[C@H](CC(C)C)NC(=O)[C@H](Cc1ccc(O)cc1)NC(=O)[C@H](CO)NC(=O)[C@H](CO)NC(=O)[C@@H](NC(=O)[C@H](CC(=O)O)NC(=O)[C@H](CO)NC(=O)[C@@H](NC(=O)[C@H](Cc1ccccc1)NC(=O)[C@@H](NC(=O)CNC(=O)[C@H](CCC(=O)O)NC(=O)[C@H](C)NC(=O)[C@@H](N)Cc1c[nH]cn1)[C@@H](C)O)[C@@H](C)O)C(C)C)C(=O)N[C@@H](C)C(=O)N[C@@H](Cc1c[nH]c2ccccc12)C(=O)N[C@@H](CC(C)C)C(=O)N[C@H](C(=O)N[C@@H](CCCCN)C(=O)NCC(=O)N[C@@H](CCCNC(=N)N)C(N)=O)C(C)C` [GLP-1(7-36), GLP-1(7-36)NH2], in the data set on pancreatic islets, the “insulin secretion of Arrb1βcell–/– islets compared with control islets” value was “secreted more insulin”. In addition, the “Css (free): range of Cmax values” in [1] was 5-15^E pM.
As for `CC[C@H](C)[C@H](NC(=O)[C@H](CC(C)C)NC(=O)[C@H](Cc1c[nH]c2ccccc12)NC(=O)[C@H](CCC(N)=O)NC(=O)[C@@H](NC(=O)[C@H](Cc1ccccc1)NC(=O)[C@H](C)NC(=O)[C@H](CCCCNC(=O)COCCOCCNC(=O)COCCOCCNC(=O)CC[C@H](NC(=O)CCCCCCCCCCCCCCCCCCC(=O)O)C(=O)O)NC(=O)[C@H](CCC(N)=O)NC(=O)[C@H](C)NC(=O)[C@@H](NC(=O)[C@H](CCCCN)NC(=O)[C@H](CC(=O)O)NC(=O)[C@H](CC(C)C)NC(=O)C(C)(C)NC(=O)[C@@H](NC(=O)[C@H](CO)NC(=O)[C@H](Cc1ccc(O)cc1)NC(=O)[C@H](CC(=O)O)NC(=O)[C@H](CO)NC(=O)[C@@H](NC(=O)[C@H](Cc1ccccc1)NC(=O)[C@@H](NC(=O)CNC(=O)[C@H](CCC(=O)O)NC(=O)C(C)(C)NC(=O)[C@@H](N)Cc1ccc(O)cc1)[C@@H](C)O)[C@@H](C)O)[C@@H](C)CC)[C@@H](C)CC)C(C)C)C(=O)N[C@@H](C)C(=O)NCC(=O)NCC(=O)N1CCC[C@H]1C(=O)N[C@@H](CO)C(=O)N[C@@H](CO)C(=O)NCC(=O)N[C@@H](C)C(=O)N1CCC[C@H]1C(=O)N1CCC[C@H]1C(=O)N1CCC[C@H]1C(=O)N[C@@H](CO)C(N)=O` [Tirzepatide], the Emax at GLP-1R [2] was 40%; at GLP-1R [3] it was < 10%; at SNAP-tagged GLP-1R it was < 40%.
In the case of Tirzepatide (LY3298176) (peptide), in data set [4], the other was 6.6 nM and 2.4 nM.
One may read the EC50 as the concentration giving half of the maximal effect. As for exendin-4, the results for the EC50 (in data set [5]; in the data set on GLP-1R [6]) were 0.04 nM and 0.26 nM, respectively.
As a reminder, the Ki is a measure of affinity in units of concentration, obtained from inhibition or displacement. The low end stands for tighter binding, the high end for weaker binding. Regarding Y[Aib]EGTFTSDYSI[Aib]LDKIAQK([AEEA-AEEA-γGlu-C20 diacid])AFVQWLIAGGPSSGAPPPS-NH2 [Tirzepatide (LY3298176)], in [7], affinity was put at a Ki of 0.163 nM.

B1: Semaglutide (peptide)
chain: HAEGTFTSDVSSYLEGQAAKEFIAWLVRGRG
modifications: Aib at the 2nd residue (written X in the letters); C18 diacid-γGlu-(AEEA)2 on the lysine at the 20th residue
As to B1, in data set [8], the Ki was > 500 nM. In addition, in [9], the “EC50 of cAMP accumulation, HEK293 cells with low density of human GIPR (1,700 receptors/cell)” value is > 850 nM and the “EC50 of cAMP accumulation, HEK293 cells with medium density of human GIPR (6,400 receptors/cell)” value is > 100 nM.
